From publication PMC4047118, “BM-1197: A Novel and Specific Bcl-2/Bcl-xL Inhibitor Inducing Complete and Long-Lasting Tumor Regression In Vivo” (PLoS ONE, 2014)

Columns and labels:
Mcl-1 = Mcl-1 (Homo sapiens, UniProt Q07820); assay: fluorescence-polarization (FP) binding assay, Mcl-1
Description: BM-1197 ( Fig 1 ), was synthesized in a similar manner as described for BM-1074 [16]. We evaluated the binding affinities of BM-1197 to Bcl-2, Bcl-xL and Mcl-1 proteins using our optimized fluorescence-polarization (FP) binding assays. […] Of note, the binding affinities of these compounds to Bcl-2 and Bcl-xL proteins are close to the lower limits of the assay and their precise Ki values could not be determined accurately using our competitive, FP binding assays.

[1] = tested on: MCL1-wild-type (WT) MEF cells; assay: cell growth inhibition, WST assay, wild-type MEF; format: cell-based; conditions: Mus musculus, 72 h, 3 days
Protocol: (§1) All the SCLC cell lines were purchased from American Type Culture Collection (Manassas, VA) and cultured as recommended. All these cell lines were passaged fewer than 6 months after purchase. MCL1 knockout (MCL1^−/−) MEF cells were kindly provided by Dr. David Huang (The Walter and Eliza Hall Institute of Medical Research, Melbourne, Australia). Cell growth inhibition was evaluated by means of a WST-8 assay (Dojindo, Rockville, MD) as described previously. Mitochondrial membrane potential was determined by JC-1 staining using a JC-1 Mitochondrial Membrane Potential Assay kit (Cayman). Apoptosis analysis was performed using an Annexin V/propidium iodide (PI) apoptosis detection kit (Roche Applied Sciences, Indianapolis, IN).
(§2) (B) MCL1^−/− cells were treated with 100 nM of BM-1197 for 16 h and stained with Annexin V/PI for flow cytometry. […] They are given in the order upper left, upper right, lower left, lower right.

[2] = tested on: MCL1-deficient (MCL1−/−) MEF cells; assay: cell growth inhibition, WST assay, MCL1-deficient MEF; format: cell-based, mouse
Protocol: as §1, §2

Bcl-2 = target: T1, Bcl-2 (Mus musculus, UniProt P10417); assay: cellular thermal shift assay (CETSA), Bcl-2; format: cell-based; conditions: 1 µM, 1 h, MEF MCL1−/− cells
T1 construct: endogenous in cells; host or cells: MEF MCL1-/- cells
T1 sequence (P10417 whole entry): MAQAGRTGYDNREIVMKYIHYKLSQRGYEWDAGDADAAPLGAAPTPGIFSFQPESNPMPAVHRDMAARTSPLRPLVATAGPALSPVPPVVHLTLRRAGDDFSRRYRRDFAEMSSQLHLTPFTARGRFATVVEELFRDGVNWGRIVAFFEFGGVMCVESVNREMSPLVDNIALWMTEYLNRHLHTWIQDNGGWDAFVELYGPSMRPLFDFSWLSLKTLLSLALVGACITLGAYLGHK
Protocol: Drug-target engagement was assessed using CETSA as described by Molina et al.. Briefly, cells were treated with drugs for 1 h, then harvested, washed with PBS, and resuspended in PBS. The resuspended cells were freeze-thawed 4 times. The soluble fraction (lysate) was separated from cell debris by centrifugation at 20000×g for 20 minutes at 4°C and then analyzed by Western blots.
Drug-treated cells were heated at gradient temperature from 42°C to 62°C for 3 min then freeze-thawed 4 times. The soluble fractions of the lysed cells were analyzed by immunoblotting. (B) MEF MCL1^− ^/− cells were treated with drugs at the indicated doses for 1 h before collected for CETSA.

platelets = assay: platelet count / on-target platelet toxicity in mice; format: in vivo
Protocol: BM-1197 was administered by IV bolus injected into the tail vein of the mice. Mice were euthanized at different time points with CO2, then ∼0.2 ml of blood was drawn by cardiac puncture using an EDTA treated syringe, transferred to an EDTA treated tube and sent immediately for a Complete Blood Count. The samples were read at the University of Michigan Animal Diagnostic Laboratory on a HEMAVET 950FS Hematology Analyzer.
Figure 11 BM-1197 decreases platelet count in mice. BM-1197 was administered by IV bolus injected into the tail vein. At the indicated time points the mice were euthanized and blood was drawn for complete blood count. Data are mean ± SEM (n = 3).

[3] = tested on: BM-1197-insensitive SCLC cell lines; assay: MCL1 shRNA knockdown, growth inhibition by WST assay; format: cell-based, human; conditions: MCL1 shRNA 2 days, then drug 2 days
Protocol: ON-TARGETplus SMARTpools for mouse Bax and Bak and non-targeting negative control siRNAs were obtained from Dhamarcon. Transfection was performed using Lipofectamine RNAiMAX (Invitrogen). Lentiviral vector for scrambled and human MCL1 shRNA and lentivirus infection were described previously. Immunoblotting was performed using a published procedure. For immunoprecipitation assays, cells lysed with CHAPS buffer (150 mM NaCl, 10 mM HEPES [pH 7.4], 0.5% Chaps) or Triton buffer (150 mM NaCl, 10 mM HEPES [pH 7.4], 0.5% Triton X-100) supplemented with Complete protease inhibitors (Roche). Immunoprecipitation and immunoblot assays were performed with the indicated antibodies. Active Bax was detected by immunoprecipitation with the Bax 6A7 antibody, which recognizes only the conformationally changed Bax protein [27].
Figure 12 Effects of MCL1 knockdown on BM-1197-induced apoptosis. (A) Cells were transduced with lentiviral particles containing scrambled (SCR) or MCL1-specific shRNAs for 2 days, then treated with BM-1197 for 2 days. The growth-inhibitory activity of BM-1197 was assessed by WST assay. Data are representative of three independent experiments. (B) Cells were transduced with lentiviral particles containing scrambled (SCR) or MCL1-specific shRNAs for 2 days then treated with BM-1197 (100 nM) for 20 h before harvested for immunoblotting.

Chain of Mcl-1 (Q07820 whole entry): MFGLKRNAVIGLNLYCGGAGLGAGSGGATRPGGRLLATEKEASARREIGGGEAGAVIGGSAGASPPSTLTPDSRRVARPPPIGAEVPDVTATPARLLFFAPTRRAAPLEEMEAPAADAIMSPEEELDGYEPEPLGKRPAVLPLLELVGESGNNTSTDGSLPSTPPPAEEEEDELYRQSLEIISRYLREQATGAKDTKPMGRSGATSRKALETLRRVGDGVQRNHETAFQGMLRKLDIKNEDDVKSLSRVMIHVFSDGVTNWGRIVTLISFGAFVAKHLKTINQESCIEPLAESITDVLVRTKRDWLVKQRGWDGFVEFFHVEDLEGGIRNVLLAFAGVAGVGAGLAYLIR

## Cc1c(S(C)(=O)=O)c(-c2cc(F)cc(N3CCN(c4ccc(NS(=O)(=O)c5ccc(N[C@H](CCN6CCC(O)CC6)CSc6ccccc6)c(S(=O)(=O)C(F)(F)F)c5)cc4)CC3)c2)c(-c2ccc(Cl)cc2)n1C(C)C [BM-1197]
Mcl-1; at 2 µM
  binding to Mcl-1: fails to bind
Mcl-1; versus Bcl-2 and Bcl-xL
  selectivity over Mcl-1: > 1,000 fold
[1]
  IC50: > 2000 nM
[2]; MCL1−/− cells
  times more potent than ABT-263 in inhibition of cell growth: ~8 times
[2]; Mus musculus, MEF, 72 h, 3 days, WST assay
  IC50: 5 ± 3 nM
Bcl-2
  thermal stability of Bcl-2 protein: enhanced
platelets; 15 mg/kg IV bolus, at 24 h
  lowest platelet count: 96000 µL⁻¹
platelets; repeated daily or weekly intravenous doses in efficacy experiments
  bleeding: did not observe any bleeding
[3]
  insensitive cell lines in which depletion of MCL1 dramatically enhanced inhibitory activity: 4 of 5
